{"source": "patent US9326539B2", "about": "“Compositions comprising dietary fat complexers and methods for their use” (Soho Flordis International Pty. Ltd., priority 2002, dated 2016)", "key": {"[1]": {"target": "T1, porcine pancreatic lipase (Sus scrofa, UniProt P00591)", "T1 sequence (P00591 1-450)": "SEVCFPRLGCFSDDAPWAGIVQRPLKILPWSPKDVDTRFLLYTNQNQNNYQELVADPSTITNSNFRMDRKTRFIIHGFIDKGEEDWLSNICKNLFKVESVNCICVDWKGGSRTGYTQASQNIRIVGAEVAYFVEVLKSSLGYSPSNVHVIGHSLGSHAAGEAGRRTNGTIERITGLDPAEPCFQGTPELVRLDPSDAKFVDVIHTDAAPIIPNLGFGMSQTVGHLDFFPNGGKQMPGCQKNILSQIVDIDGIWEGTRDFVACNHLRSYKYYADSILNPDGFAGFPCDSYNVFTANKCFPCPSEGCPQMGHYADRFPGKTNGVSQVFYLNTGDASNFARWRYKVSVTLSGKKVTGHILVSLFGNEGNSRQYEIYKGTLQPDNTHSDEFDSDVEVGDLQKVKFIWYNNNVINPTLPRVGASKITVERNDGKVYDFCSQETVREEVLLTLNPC", "assay": "lipolytic activity of porcine pancreatic lipase on purified olive oil premixed with α-cyclodextrin", "format": "biochemical", "description": "If this were the case it would be difficult to imagine being able to feed enough of the α-cyclodextrin to an animal in order to complex sufficient triglycerides to make a significant difference in body weight as triglycerides and α-cyclodextrin have similar molecular weights. However, from the data disclosed herein wherein e.g., a diet comprising 4% α-cyclodextrin and 40% fat inhibits weight gain and reduces body fat mass, as the molecular weights are very similar, we have calculated that one α-cyclodextrin molecule can complex approximately nine molecules of triglyceride, the equivalent of 27 free fatty acids. Thus we can convert this directly to I gram of α-cyclodextrin complexes approximately 9 grams of triglyceride. […] As these particles are formed in the midst of chyme, a very complex “soup”, the particles may be analogous to lipoprotein particles of the blood stream."}, "[2]": {"assay": "volunteers fed high fat breakfast: serum triglyceride levels", "format": "in vivo, human", "experimental": "To determine the effect of α-cyclodextrin on triglyceride levels, eight volunteers were fed on two consecutive days a two-egg cheese (54 g) omelet and a milkshake containing a total of 47 g of fat after an overnight fast. On the first day the meal also contained approximately 5 g of α-cyclodextrin. Blood samples (10 ml) from each volunteer taken via an in-dwelling venous catheter immediately prior the meal (zero-time) and at 1, 2 and 3 hours after the meal was consumed and were assayed for serum triglyceride levels. The zero-time sample were used as the baseline to calculate the percentage change in blood serum triglyceride levels of the human volunteers at one, two and three hours. FIG. 7 illustrates the data collected from the volunteers.\nFIG. 7 also contains data from three of the volunteers who had partaken in an earlier two-hour study with a smaller meal (denoted “*”)."}, "[3]": {"assay": "human volunteer on high fat diet with α-cyclodextrin: weight loss and blood parameters", "format": "in vivo", "conditions": "one volunteer; for HDL cholesterol: baseline 0.97; for Triglycerides: baseline 2.76; for Insulin Resistance: baseline 2.85; for Cholesterol: baseline 4.76", "experimental": "The α-cyclodextrin was added to the subject's diet in a proportion of one gram Of α-cyclodextrin for every nine grams of fat that were estimated to be consumed by the subject. […] 200 days, approximately 6 months— By 6 months the subject's body weight was reduced by 32 pounds. In addition to the weight loss, within the first two weeks of the study, the subject's elevated blood pressure fell to the point where they were forced to reduce their prescribed beta-blacker by one-third. Their blood triglycerides were also assayed during this time and their blood serum triglyceride levels were decreased by 23% within the first month and 46% by the end of six months."}, "[4]": {"assay": "two additional volunteers, about 2 g α-cyclodextrin per meal: cholesterol, LDL, cholesterol/HDL, triglycerides", "format": "in vivo, human", "experimental": "α-cyclodextrin was also added to the diet of two additional volunteers. The α-cyclodextrin was added in a proportion such that each meal comprised about 2 g of α-cyclodextrin. Table 3 sets forth the effects of the α-cyclodextrin on reducing the levels of cholesterol, LDL, cholesterol/HDL ratio and serum triglycerides. It is of note that both of these volunteers, as well as the initial volunteer, had been and still were taking one of the statin pharmaceuticals for lowering their blood serum cholesterol. All three volunteers were taking different statins. In addition volunteer one was taking 3 g/d niacin which they reduced by 50% in the first two weeks of the study because of the unpleasant side effects of this medication."}, "[5]": {"conditions": "cited from earlier work"}, "[6]": {"conditions": "volunteer one, 2.5 months, on statin and niacin"}, "[7]": {"conditions": "volunteer two, 6 months, on statin"}}}
{"molecule": "OC[C@H]1O[C@@H]2O[C@H]3[C@H](O)[C@@H](O)[C@@H](O[C@H]4[C@H](O)[C@@H](O)[C@@H](O[C@H]5[C@H](O)[C@@H](O)[C@@H](O[C@H]6[C@H](O)[C@@H](O)[C@@H](O[C@H]7[C@H](O)[C@@H](O)[C@@H](O[C@H]1[C@H](O)[C@H]2O)O[C@@H]7CO)O[C@@H]6CO)O[C@@H]5CO)O[C@@H]4CO)O[C@@H]3CO", "note": "[α-cyclodextrin]", "values": [{"measurement": "lipolytic activity of porcine pancreatic lipase", "setting": "[1]", "result": "significantly reduced"}, {"measurement": "increase in serum triglyceride levels after meal", "setting": "[2]; eight volunteers, meal with 47 g fat and approximately 5 g α-cyclodextrin, 1, 2 and 3 hours, p<0.08", "result": "less"}, {"measurement": "change in triglyceride levels after meal", "setting": "[2]; three volunteers, earlier two-hour study with smaller meal", "result": "less"}, {"measurement": "body weight reduction", "setting": "[3]; initial weight 267 pounds, 1 g α-cyclodextrin per 9 g fat, by 6 months", "result": 32, "unit": "pounds"}, {"measurement": "Body Mass Index", "setting": "[3]; 1 month", "result": 39.17}, {"measurement": "Hip", "setting": "[3]; 1 month", "result": 127, "unit": "cm"}, {"measurement": "Waist", "setting": "[3]; 1 month", "result": 124, "unit": "cm"}, {"measurement": "HDL cholesterol", "setting": "[3]; 1 month", "result": 1.00, "unit": "mmol/L"}, {"measurement": "Triglycerides", "setting": "[3]; 1 month", "result": 2.13, "unit": "mmol/L"}, {"measurement": "Insulin Resistance", "setting": "[3]; 1 month", "result": 2.13}, {"measurement": "Cholesterol", "setting": "[3]; 1 month", "result": 4.76, "unit": "mmol/L"}, {"measurement": "Body Mass Index", "setting": "[3]; 6 months", "result": 37.27}, {"measurement": "Hip", "setting": "[3]; 6 months", "result": 117, "unit": "cm"}, {"measurement": "Waist", "setting": "[3]; 6 months", "result": 117, "unit": "cm"}, {"measurement": "HDL cholesterol", "setting": "[3]; 6 months", "result": 1.11, "unit": "mmol/L"}, {"measurement": "Triglycerides", "setting": "[3]; 6 months", "result": 1.50, "unit": "mmol/L"}, {"measurement": "Insulin Resistance", "setting": "[3]; 6 months", "result": 1.35}, {"measurement": "Cholesterol", "setting": "[3]; 6 months", "result": 4.0, "unit": "mmol/L"}, {"measurement": "decrease of blood serum triglyceride levels", "setting": "[3]; by the end of six months", "result": 46, "unit": "%"}, {"measurement": "decrease of blood serum triglyceride levels", "setting": "[3]; within the first month", "result": 23, "unit": "%"}, {"measurement": "elevated blood pressure", "setting": "[3]; within the first two weeks", "result": "fell"}, {"measurement": "Cholesterol (change)", "setting": "[4]; [6]", "result": "−18.5", "unit": "%"}, {"measurement": "Cholesterol/HDL (change)", "setting": "[4]; [6]", "result": "−16.1", "unit": "%"}, {"measurement": "LDL (change)", "setting": "[4]; [6]", "result": "−25.6", "unit": "%"}, {"measurement": "TG (change)", "setting": "[4]; [6]", "result": "−22.2", "unit": "%"}, {"measurement": "Cholesterol (change)", "setting": "[4]; [7]", "result": "−10.2", "unit": "%"}, {"measurement": "Cholesterol/HDL (change)", "setting": "[4]; [7]", "result": "−8.8", "unit": "%"}, {"measurement": "LDL (change)", "setting": "[4]; [7]", "result": "−15.0"}, {"measurement": "TG (change)", "setting": "[4]; [7]", "result": "−37.5", "unit": "%"}, {"measurement": "weight gain of rats versus control diet", "setting": "[5]; JP 05-298849, diet with 16% a-cyclodextrin, or 1% linolenic acid, or 14% α-cyclodextrin and 2% linolenic acid", "result": "gain weight approximately the same as rats fed a control diet"}, {"measurement": "body weight gain of rats versus control diets", "setting": "[5]; Kaewprasert et al. 2001, 5% α-cyclodextrin diet, cyclodextrin:fat about 1:1.4", "result": "not significantly different"}, {"measurement": "weight gain of rats", "setting": "[5]; S60-149752, diet with 14% w/w α-cyclodextrin, or 14% w/w α-cyclodextrin and 0.5% w/w linolenic acid", "result": "little effect on weight gain"}]}
